The values below come from BindingDB's records for doi:10.1016/j.bmcl.2006.03.030 (Gsk, 2006).

pEC50: −log10 of the molar value. Where only a bound is given, the exact number is not on record here.

Sequence of Transient receptor potential cation channel subfamily V member 1 (Q8NER1 whole entry): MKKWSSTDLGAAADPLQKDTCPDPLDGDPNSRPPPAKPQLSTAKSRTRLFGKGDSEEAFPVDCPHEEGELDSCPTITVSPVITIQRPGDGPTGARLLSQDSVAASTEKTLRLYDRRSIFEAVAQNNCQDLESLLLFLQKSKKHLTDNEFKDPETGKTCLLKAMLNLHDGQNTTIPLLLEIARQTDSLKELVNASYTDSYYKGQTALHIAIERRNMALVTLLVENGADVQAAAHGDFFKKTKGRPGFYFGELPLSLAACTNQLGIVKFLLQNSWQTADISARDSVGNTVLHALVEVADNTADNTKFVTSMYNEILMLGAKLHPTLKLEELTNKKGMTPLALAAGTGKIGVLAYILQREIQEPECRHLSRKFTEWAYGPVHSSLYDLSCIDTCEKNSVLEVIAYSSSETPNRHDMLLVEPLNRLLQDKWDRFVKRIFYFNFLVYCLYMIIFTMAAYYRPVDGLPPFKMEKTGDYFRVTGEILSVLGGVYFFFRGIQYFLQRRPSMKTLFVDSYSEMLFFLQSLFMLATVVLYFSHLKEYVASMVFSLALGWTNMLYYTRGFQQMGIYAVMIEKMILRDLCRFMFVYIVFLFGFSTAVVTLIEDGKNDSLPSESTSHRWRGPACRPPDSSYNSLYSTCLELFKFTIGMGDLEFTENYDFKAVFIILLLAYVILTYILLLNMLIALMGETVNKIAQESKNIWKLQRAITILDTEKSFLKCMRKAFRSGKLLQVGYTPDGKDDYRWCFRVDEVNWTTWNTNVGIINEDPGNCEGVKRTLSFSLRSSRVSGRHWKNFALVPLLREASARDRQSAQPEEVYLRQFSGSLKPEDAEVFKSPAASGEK

This assay addresses Transient receptor potential cation channel subfamily V member 1 (Homo sapiens, UniProt Q8NER1). As to the kind of experiment: FLIPR (Fluorescence Imaging Plate Reader)-Based Ca2+ Assay. The note with it: pH 7.2; 25 °C. How it is done: One day before the assay was performed, human TRPV1 expressed in 1321N1 astrocytoma cells were plated onto 96-well assay plates and grown until 2.5 h before the assay, and the cells were loaded with the Ca2+ reporter dye Fluo3-AM for 2 h at room temperature. After this, the cells were washed, and continuously being incubated for 30 min with medium containing test compounds at a range of different concentrations. The plates were then placed into a FLIPR to monitor fluorescence (excitation @ 488 nm and emission @540 nm) before and after the addition of capsaicin, antagonist potency was determined versus an EC80 concentration of capsaicin that was determined empirically on the day of the experiment.
By pEC50 is commonly meant the negative decadic logarithm of the EC50, by convention in mol/L. Compound `O=C(NCCN1CCc2ccccc21)Nc1ccccc1Br` [1-(2-bromophenyl)-3-[2-(2,3-dihydro-1H-indol-1-yl)ethyl]urea] gave a negative logarithm of the EC50 (pEC50) of 6.80.

On to `O=C(NCCN1CCc2c(F)cccc21)Nc1ccccc1Br` [1-(2-bromophenyl)-3-[2-(4-fluoro-2,3-dihydro-1H-indol-1-yl)ethyl]urea], for which the negative logarithm of the EC50 (pEC50) was 7.40. As to `Cc1cccc2c1CCN2CCNC(=O)Nc1ccccc1Br` [1-(2-bromophenyl)-3-[2-(4-methyl-2,3-dihydro-1H-indol-1-yl)ethyl]urea], the negative-log EC50 (pEC50) is 7.40.

`O=C(NCCN1CCc2cc(F)ccc21)Nc1ccccc1Br` [1-(2-bromophenyl)-3-[2-(5-fluoro-2,3-dihydro-1H-indol-1-yl)ethyl]urea] had a negative-log EC50 (pEC50) of 7.10. Under `Cc1ccc2c(c1)CCN2CCNC(=O)Nc1ccccc1Br` [1-(2-bromophenyl)-3-[2-(5-methyl-2,3-dihydro-1H-indol-1-yl)ethyl]urea] stands 7.30; under `O=C(Nc1ccccc1Br)N[C@@H]1CCN(c2ccc(F)c(F)c2)C1` [1-(2-bromophenyl)-3-[(3R)-1-(3,4-difluorophenyl)pyrrolidin-3-yl]urea], 8.10. `Cc1ccc(N2CC[C@@H](NC(=O)Nc3ccccc3Br)C2)cc1F` [1-(2-bromophenyl)-3-[(3R)-1-(3-fluoro-4-methylphenyl)pyrrolidin-3-yl]urea]: the negative logarithm of the EC50 (pEC50) is 8.30. With `O=C(Nc1ccccc1Br)N[C@@H]1CCN(c2cccc(F)c2)C1` [1-(2-bromophenyl)-3-[(3R)-1-(3-fluorophenyl)pyrrolidin-3-yl]urea], the pEC50 was 7.80.

The compound `Cc1cccc(N2CC[C@@H](NC(=O)Nc3ccccc3Br)C2)c1` [1-(2-bromophenyl)-3-[(3R)-1-(3-methylphenyl)pyrrolidin-3-yl]urea] had a negative-log EC50 (pEC50) of 7.70. This pEC50 and that of the compound before are within 0.2 log units of each other. Next, `O=C(Nc1ccccc1Br)N[C@@H]1CCN(c2ccc(Br)cn2)C1` [1-(2-bromophenyl)-3-[(3R)-1-(5-bromopyridin-2-yl)pyrrolidin-3-yl]urea]: 7.20. As to `O=C(Nc1ccccc1Br)N[C@@H]1CCN(c2ccc(Cl)cn2)C1` [1-(2-bromophenyl)-3-[(3R)-1-(5-chloropyridin-2-yl)pyrrolidin-3-yl]urea], the negative-log EC50 (pEC50) was 7.30. As to `N#Cc1ccc(N2CC[C@@H](NC(=O)Nc3ccccc3Br)C2)nc1` [1-(2-bromophenyl)-3-[(3R)-1-(5-cyanopyridin-2-yl)pyrrolidin-3-yl]urea], the negative-log EC50 (pEC50) was 6.70. Next, `Cc1ccc(N2CC[C@@H](NC(=O)Nc3ccccc3Br)C2)nc1` [1-(2-bromophenyl)-3-[(3R)-1-(5-methylpyridin-2-yl)pyrrolidin-3-yl]urea]: under 6.70. As for `O=C(Nc1ccccc1Br)N[C@@H]1CCN(c2ccccn2)C1` [1-(2-bromophenyl)-3-[(3R)-1-(pyridin-2-yl)pyrrolidin-3-yl]urea], the pEC50 is under 6.60. For `O=C(Nc1ccccc1Br)N[C@@H]1CCN(c2ncccc2C(F)(F)F)C1` [1-(2-bromophenyl)-3-[(3R)-1-[3-(trifluoromethyl)pyridin-2-yl]pyrrolidin-3-yl]urea], the negative-log EC50 (pEC50) is 7.10. In the case of `O=C(Nc1ccccc1Br)N[C@@H]1CCN(c2cc(C(F)(F)F)ccn2)C1` [1-(2-bromophenyl)-3-[(3R)-1-[4-(trifluoromethyl)pyridin-2-yl]pyrrolidin-3-yl]urea], the pEC50 is 6.90. Compared with the last compound, the pEC50 is 0.20 log units lower. Take `O=C(Nc1ccccc1Br)N[C@@H]1CCN(c2ccc(C(F)(F)F)cn2)C1` [1-(2-bromophenyl)-3-[(3R)-1-[5-(trifluoromethyl)pyridin-2-yl]pyrrolidin-3-yl]urea]: the pEC50 was 7.49. Under `O=C(Nc1ccccc1Br)N[C@@H]1CCN(c2cccc(C(F)(F)F)n2)C1` [1-(2-bromophenyl)-3-[(3R)-1-[6-(trifluoromethyl)pyridin-2-yl]pyrrolidin-3-yl]urea] stands 7.20; under `Cc1cccc(N2CC[C@H](NC(=O)Nc3ccccc3Br)C2)c1` [1-(2-bromophenyl)-3-[(3S)-1-(3-methylphenyl)pyrrolidin-3-yl]urea], under 6.80; under `Cc1ccc2c(c1)CCCN2CCNC(=O)Nc1ccccc1Br` [3-(2-bromophenyl)-1-[2-(6-methyl-1,2,3,4-tetrahydroquinolin-1-yl)ethyl]urea], 7.40.
